The results in this text go back to US11160808B2, “Compounds that enhance Atoh1 expression” (Massachusetts Eye & Ear Infirmary, priority 2008, dated 2021).

Series [1] has as its system Math1 enhancer and minimal promoter Luciferase reporter in HEK cells. The series can be described thus: Math1 Luciferase reporter assay in HEK cells. Type of series: cell-based, human. The procedure, abridged:
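HEK cells stably carrying luciferase under the Math1 enhancer and minimal promoter were treated with compounds for 48 hours at 37° C, then lysed for luminescence, normalized to DMSO. Hits were defined as a 2-fold increase, with 1 μM retinoic acid as positive control. Follow-up used 0.1, 1 and 5 μM for 48 hours in 10% FBS DMEM, read by luciferase and real-time PCR.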
Background: Reporter assays use an easily measured gene product as a stand-in for the process of interest.

The next series deals with Math1 mRNA. The series can be described thus: Math1 mRNA expression by RT-PCR in HEK cells. The series is classed as cell-based, human. To be noted: among the four randomly selected compounds. Here is the method:
Ten compounds, randomly selected from the group of 110 compounds identified in Example 2, were further evaluated, as follows. HEK cells were plated on 96 well plates at a density of 100000 cells per well. One day after plating, 0.1, 1, and 5 μM of each positive compound was added per well in a 10% fetal bovine serum (FBS) DMEM solution. Cells were then lysed 48 hours after addition of the compound and Math1 expression was analyzed using a luciferase reporter assay, as described above, and real-time PCR.
RNA was also isolated and Math1 transcripts were amplified using high-throughput RT-PCR.

Another series concerns Inner ear stem cells. Put plainly: Hair cell differentiation of inner ear stem cells (Math1-GFP and myosin 7a co-labeling). Type of series: cell-based. The settings on record: cells co-labeled with Math1-GFP and myosin 7a; control 1.6%. From the text:
Inner ear stem cells were exposed to compound CP.-0000540, which was selected at random from the group of 110 positive compounds described in Example 2.
Hair cell differentiation was increased to 5.1% of total cells compared to 1.6% for control.

Series [2] can be described thus: LD50 (median lethal dose) determination. The series is classed as cell-based. From the text:
IC50 is a measure of the effectiveness of a compound in inhibiting biological or biochemical function. LD50 is the amount of a compound required to kill half the members of a tested population.

The mark [3] stands for this setting: Homo sapiens, HEK293; read-out: IC50.
Where [4] appears, read: Homo sapiens, HEK293; read-out: Maximum (Fold DMSO).

Read-outs that look alike come from different tables or passages of the source. A value given as a limit tells only on which side of the number the result lay.

The term IC50 denotes the concentration that gives 50% inhibition. As for `Clc1ccc2nc(-c3ccccc3)n(OCc3ccccc3Cl)c2c1` [CP-0000540, 6-chloro-1-(2-chlorobenzyloxy)-2-phenyl-1H-benzo[d]imidazole], in series [1] (setting [3]), the IC50 came to 1300 nM. Besides, the maximal fold induction in series [1] (setting [4]) was 2. Further, the “increase in Math1 mRNA expression (ranking in words)” value with Math1 mRNA is on record as “highest increase”. In addition, the Hair cell differentiation in the series on Inner ear stem cells was 5.1 % of total cells. Further, in series [2], the “LD50” value was more than 30 µM.
Consider `COc1ccc(Br)c(-c2nc(-c3cccs3)no2)c1` [CP-0104904, 5-(2-bromo-5-methoxyphenyl)-3-(thiophen-2-yl)-1,2,4-oxadiazole], for which, in series [1] (setting [3]), the IC50 is more than 10000 nM. In addition, the maximal fold induction in series [1] (setting [4]) was 2.2. Also, the “LD50” value in series [2] was more than 10 µM.
The matching figures for `COc1ccc(-c2csc(-c3c(C)noc3N)n2)cc1` [CP-0105343, 4-(4-(4-methoxyphenyl)thiazol-2-yl)-3-methylisoxazol-5-amine]: 3000 nM, 2 and more than 10 µM.
The matching figures for `CC(=O)Nc1ccc2nc(NC(=O)c3ccco3)sc2c1` [CP-0105777, N-(6-acetamidobenzo[d]thiazol-2-yl)furan-2-carboxamide]: 300 nM, 2 and more than 10 µM.
The matching figures for `COc1cccc(C(=O)Nc2nc3ccc(F)cc3s2)c1` [CP-0107060, N-(6-fluorobenzo[d]thiazol-2-yl)-3-methoxybenzamide]: 100 nM, 2.2 and more than 10 µM.
Take `Cc1ccccc1OCc1nc2ccccc2[nH]1` [CP-0109953, 2-(o-tolyloxymethyl)-1H-benzo[d]imidazole]: in series [1] (setting [3]), the IC50 was 100 nM. Further, the maximal fold induction in series [1] (setting [4]) came to 1.8. Moreover, the “LD50” value in series [2] is more than 10 µM.
The matching figures for `CC(C)Oc1ccc(C(=O)Nc2sccc2C#N)cc1` [CP-0110352, N-(3-cyanothiophen-2-yl)-4-isopropoxybenzamide]: 50 nM, 1.8 and more than 10 µM.
The corresponding values for `O=C(COc1ccccc1)N1CCc2ccccc21` [CP-0110644, 1-(indolin-1-yl)-2-phenoxyethanone] are 1000 nM, 1.8 and more than 10 µM.
The corresponding values for `Cc1ccc(CSc2nc3ncccc3o2)cc1` [CP-0130586, 2-(4-methylbenzylthio) oxazolo[4,5-b]pyridine] are 500 nM, 2.2 and more than 10 µM.
Turning to `Fc1ccccc1-c1noc(NCCCN2CCCCC2)n1` [CP-0130665, 3-(2-fluorophenyl)-N-(3-(piperidin-1-yl)propyl)-1,2,4-oxadiazol-5-amine], in series [1] (setting [3]), the IC50 worked out at 300 nM. Moreover, the maximal fold induction in series [1] (setting [4]) was 2. The “LD50” value in series [2] was more than 10 µM.
As for `Brc1ccc(C2C=C(c3cccnc3)Nc3nc4ccccc4n32)cc1` (centres unmarked) [CP-0131763, 2-(3-pyridyl)-4-(4-bromophenyl)-1,4-dihydrobenzo[4,5]imi-dazo[1,2-a]pyrimidine], in series [1] (Homo sapiens, HEK293), the IC50 is 2000 nM. Besides, the maximal fold induction in series [1] (Homo sapiens, HEK293, read-out: Maximum (Fold DMSO)) was found to be 2.4. The “LD50” value in series [2] was more than 10 µM.
Consider `Cc1cccc(Nc2nc(N)c(C(=O)C(C)C)s2)c1` [CP-0134381, 1-(4-amino-2-(m-tolylamino)thiazol-5-yl)-2-methylpropan-1-one], for which the IC50 in series [1] (setting [3]) was 2000 nM. In series [1] (setting [4]), the maximal fold induction stood at 2.2. The “LD50” value in series [2] is more than 10 µM.
Take `COc1ccc(-c2nc3ccccc3n2CCc2ccccc2)cc1` [CP-0193184, 2-(4-methoxyphenyl)-1-phenethyl-1H-benzo[d]imidazole]: in series [1] (setting [3]), the concentration for half-maximal inhibition (IC50) is more than 10000 nM. Besides, the “increase in Math1 mRNA expression (ranking in words)” value with Math1 mRNA was “highest increase”. Further, in series [2], the “LD50” value was more than 30 µM.
